From patent US20120018333A1, “Reducing Side Effects of Tramadol” (priority 2007, published 2012)
Structures can show the parent of a compound that is named as a salt.

Key:
[1] = placebo controlled, dose-ranging clinical study of oral tramadol HCl in men with severe premature ejaculation; assay type: in vivo, human; settings: percentages based on total drug exposures for the three doses, 2 to 5 hours before intercourse
Description: See U.S. Pat. No. 6,974,839, Safarinejad et al., J. Clin. Psychopharmacol., 26(1):27-31 (February 2006) and Salem et al., J. Sex. Med., 5(1):188-193 (January 2008). A placebo controlled, dose-ranging clinical study that enrolled more than 60 male volunteers with severe premature ejaculation who self administered three different doses of oral tramadol HCl 2 to 5 hours before sexual intercourse was performed on behalf of DMI BioSciences, Inc., Aurora, Colo. […] However, the patient reported outcome responses in this study also reported the following previously unreported mild or moderate adverse events (percentages based on total drug exposures for the three doses): erectile dysfunction (8%-14%), anorgasmia (3%-7%), and penile hypoesthesia (4%-5%). Less common unexpected, drug-related mild or moderate adverse events were decreased libido (<1%-2%) and decreased orgasmic sensation (0-<1%). These mild or moderate adverse events related to sexual activity were generally dose-dependent and occurred more frequently in men 40 years of age and older.

[2] = volunteer study of adverse events: tramadol HCl alone or combined with sildenafil citrate and naltrexone HCl before sexual intercourse
Description: In particular, three healthy, heterosexual male subjects (mean age 57) signed informed consents and volunteered to self administer oral tramadol HCl 100 mg 2 to 5 hours before sexual intercourse and to record any adverse events. At other times, these volunteers self administered oral tramadol HCl 25 to 100 mg combined with oral sildenafil citrate 50 mg or oral sildenafil citrate 50 mg plus oral naltrexone HCl 2.5 to 10 mg 2 to 5 hours before sexual intercourse and recorded any adverse effects.

[3] = used for analgesia; cited from earlier work
[4] = tramadol HCl 100 mg alone, % of total drug exposures, three volunteers

## COc1cccc([C@]2(O)CCCC[C@H]2CN(C)C)c1 (racemic) [tramadol HCl, (±) cis-2-[(dimethylamino)methyl]-1-(3-methoxyphenyl)-cyclohexanol hydrochloride]
[1]
  anorgasmia (mild or moderate adverse event): 3%-7%
  decreased libido (mild or moderate adverse event): <1%-2%
  erectile dysfunction (mild or moderate adverse event): 8%-14%
  penile hypoesthesia (mild or moderate adverse event): 4%-5%
[2]; oral, 2 to 5 hours before sexual intercourse
  serious adverse events: No serious adverse events occurred
[2]; [4]
  anorgasmia: 29%
  constipation: 71%
  decreased libido: 43%
  decreased orgasmic sensation: 57%
  dizziness: 14%
  dry mouth: 57%
  erectile dysfunction: 43%
  fatigue: 14%
  insomnia: 71%
  itching: 57%
  nasal congestion: 57%
  nausea: 14%
  penile hypoesthesia: 43%
  restlessness: 29%
[2]; tramadol HCl alone, oral
  mild or moderate adverse events, 100 mg dose compared with 25 mg: substantially more

## COc1cccc(C2(O)CCCCC2CN(C)C)c1 (stereo not shown) [Tramadol, 2-[(dimethylamino)methyl]-1-(3-methoxyphenyl)-cyclohexanol]
[3]
  incidence of reported side effects (dizziness, nausea, constipation, headache, somnolence, vomiting, pruritis, CNS stimulation, asthenia, sweating, dyspepsia, dry mouth, diarrhea): ≥ 5%

## O=C1CC[C@@]2(O)[C@H]3Cc4ccc(O)c5c4[C@@]2(CCN3CC2CC2)[C@H]1O5 [naltrexone]
[2]; naltrexone 2.5 mg to 10 mg given with tramadol
  effectiveness of tramadol in delaying ejaculation: did not reduce
